# Measurements as given in US9440971B2, “Solid state forms of vemurafenib hydrochloride” (ratiopharm GmbH, priority 2013, dated 2016).
# Structures can show the parent of a compound that is named as a salt. Where two headings read alike, the source gives them in different places.
# How the values were obtained:
# [1] = conditions not given; cited from earlier work
# [2] = as observed in WO 2010/114928 and WO 2010/129570; cited from earlier work
# [3] = Storage stability of the crystalline form at controlled temperature and relative humidity; assay type: physicochemical; details: up to at least 24 weeks, hydrochloride
# From the text: Particularly, crystalline Vemurafenib HCl form II has high chemical purity and excellent stability properties. […] Therefore, the crystalline Vemurafenib HCl form II may be used to prepare an oral formulation which is stable and has a relatively small tablet or capsule size as the molar ratio of Vemurafenib to HCl is about 1:1, which is highly advantageous for preparing pharmaceutical compositions with high drug load.
# Solubility = assay type: physicochemical
# [4] = 25° C. and 60% relative humidity (RH)
"stability upon storage [3, 4]",stability upon storage ([3]; 30° C./65% RH),solubility (Solubility),Compound,stability of amorphous form [1],solubility [2]
–,–,–,CCCS(=O)(=O)Nc1ccc(F)c(C(=O)c2c[nH]c3ncc(-c4ccc(Cl)cc4)cc23)c1F [Amorphous Vemurafenib],not stable,–
–,–,–,"CCCS(=O)(=O)Nc1ccc(F)c(C(=O)c2c[nH]c3ncc(-c4ccc(Cl)cc4)cc23)c1F [Vemurafenib, propane-1-sulfonic acid {3-[5-(4-chlorophenyl)-1H-pyrrolo[2,3-b]pyridine-3-carbonyl]-2,4-difluoro-phenyl}-amide]",–,extremely low solubility
converts to Vemurafenib free base,converts to Vemurafenib free base,–,"CCCS(=O)(=O)Nc1ccc(F)c(C(=O)c2c[nH]c3ncc(-c4ccc(Cl)cc4)cc23)c1F [crystalline Vemurafenib HCl form I, Vemurafenib hydrochloride]",–,–
stable,stable,good solubility,"CCCS(=O)(=O)Nc1ccc(F)c(C(=O)c2c[nH]c3ncc(-c4ccc(Cl)cc4)cc23)c1F [crystalline Vemurafenib HCl form II, Vemurafenib hydrochloride]",–,–
